Experimental data published in US6399574B1 (priority 1997, dated 2002).
“And” between values parts separate entries of the source, which are not always exact repeats. Identical values can stand only once.

Assays:
[1] = system: Frings audiogenic seizure susceptible mice; details: mouse, in vivo
[2] = system: Frings audiogenic seizure-susceptible mice; details: mouse, in vivo

Row | Compound | animals protected [1] | toxicity (rotorod) [2]
1 | NC(=O)OCC(COC(N)=O)c1ccccc1 [Felbamate, reference compound] | 5/8 protected and 4/8 protected | no marked
2 | CC1(C)O[C@@H]2[C@@H](CO[C@@]3(COS(N)(=O)=O)OC(C)(C)O[C@@H]23)O1 [Topiramate, reference compound] |  | no marked
